Patent US20220411879A1, “COMPOSITIONS AND METHODS FOR REGULATING EGFR AMPLIFICATION IN CANCER CELLS FOR IMPROVING EFFICACY OF EGFR-TARGETED ANTI-CANCER AGENTS” (Institute for Cancer Research d/b/a The Research Institute …, priority 2019, published 2022)

Key:
Format in all cases: cell-based, human
[1] = system: RPE cells; experiment: DNA FISH for EGFR DNA copy number in RPE cells
Protocol: The FISH protocol was performed as described previously in Black et al. (2013). Briefly, cell suspensions were fixed in ice-cold methanol:glacial acetic acid (3:1) solution for a minimum of four hours, before being spun onto 8 Chamber Polystyrene vessel tissue culture treated glass slides (Falcon, Fisher Scientific), using a centrifuge at 900 rpm. The slides were air-dried and incubated in 2×SSC buffer for 2 min, followed by serial ethanol dilution (70%, 85% and 100%) incubations for 2 min each, for a total of 6 min. Air-dried slides were hybridized with probes that were diluted in appropriate buffer overnight at 37° C., following a 4 minute incubation on a heat block at 78° C. The slides were washed the next day for 3 to 4 mins in appropriate wash buffers at 69° C. with 0.4×SSC for Cytocell probes or commercially available Agilent wash buffer 1 followed by washing in 2×SSC with 0.05% Tween-20 (Cytocell probes) or commercially available Agilent wash buffer 2 (Agilent probes). The slides were incubated in 1 mg/mL DAPI solution made in 1% BSA-PBS, followed by a final 1×PBS wash. After the wash, the slides were mounted with ProLong Gold antifade reagent (Invitrogen).
FISH images were acquired using an Olympus IX81 or Olympus IX83 spinning disk microscope at 40× magnification and analyzed using Slidebook 6.0 softwares. A minimum of 25 z-planes with 0.5 um step size was acquired for each field. Copy number gains for EGFR, 7 centromere (7C), 7p telomere (7p22.3), IKZF1 (7p12.2) and 8 centromere (8C) were scored in RPE cells as three or more foci. A minimum of 100 nuclei are scored for each independent experiment.
For hypoxia, EGF and KDM5i combinatorial experiments, RPE cells were pre-treated with 1 nM of KDM4 inhibitor exactly 24 hours prior to hypoxic exposure or EGF treatment. Immediately before transferring cells to hypoxia, or before drug or growth factor treatment, KDM4 inhibitor was supplemented to cells again at a concentration of 1 nM (double spike). Cells were then cultured in the respective conditions for 24 hours prior to harvesting for RNA, protein, cell cycle and DNA FISH analysis.
RPE cells were treated with KDM5 inhibitor (C70) at a final concentration of 1 μM for a total treatment time of 48 hours. […]

[2] = system: RPE cells; experiment: Trypan blue exclusion assay of EGFR inhibitor sensitivity in RPE cells; conditions: KDM5i (1 μM) and Gefitinib (2.5 μM), 72 hours
Protocol: Control or stable KDM4A overexpression RPE cells were plated in 24 well tissue culture plates at a density of 5×10^3. […] Cells were stained with trypan blue solution (Sigma Aldrich) to assess cell viability and counted using a haemocytometer. Each condition was plated in triplicate wells and each well was counted in duplicate. An average was taken of all triplicates and used as a representative total.
Control or stable KDM4A overexpression RPE cells were plated in 24 well tissue culture plates at a density of 8×10^3. […] Cells were stained with trypan blue solution (Sigma Aldrich) to assess cell viability and counted using a hemocytometer. Each condition was plated in triplicate wells and each well was counted in duplicate. An average was taken of all triplicates and used as a representative total.
Parental RPE cells are plated in 24 well tissue culture plates, in triplicate at a density of 5×10^3. […] Cells are cultured for a total of 72 hours under drug treatment conditions before being harvested, stained with trypan blue and counted using a haemocytometer.

[3] = system: RPE cells; experiment: Cell proliferation assay with EGF stimulation in RPE cells
Protocol: Control, KDM4A overexpression or wild type parental RPE cells were plated at a density of 5×10^3 per well in a 6 well tissue culture plate. Each condition was plated in triplicate for each independent experiment. Cells were allowed to adhere for 16 hours before fresh complete media was added containing a final concentration of 50 ng/ml human recombinant EGF (Abcam). For control and KDM4A overexpression RPE cells, cells were harvested after 48 hours of EGF treatment and cell number calculated using a haemocytometer. For combinatorial drug experiments using parental RPE cells, EGF was added for 24 hours, following a 24 hour drug treatment with either KDM5i (1 μM) or EZH2i (3 μM).
Parental RPE cells were plated in 24 well tissue culture plates, in triplicate at a density of 5×10^3. Cells were allowed to adhere for approximately 16 hours before media was supplemented with EZH2 inhibitor (C24) at a final concentration of 3 μM. After an initial 24 hour treatment, human recombinant EGF was supplemented to each well at a final concentration of 50 ng/ml. After 48 hours of EGF treatment, cells were harvested and counted using a haemocytometer.

[4] = system: EGFR transcripts; experiment: qPCR of EGFR transcripts in RPE cells; conditions: 50 ng/ml EGF, 24 hours
Protocol: Cells were washed and collected by trypsinization, followed by washing in PBS two times. Cell pellet was resuspended in Qiazol reagent (QIAGEN) and stored at −80° C. before further processing. Total RNA was extracted using miRNAeasy Mini Kit (QIAGEN) with an on-column DNase digestion according to the manufacturer's instructions. RNA was quantified using NanoDrop 2000 (Thermo Scientific). Single strand cDNA was prepared using Super Script IV first strand synthesis kit (Invitrogen) using random hexamers. Expression levels were analyzed using FastStart Universal SYBR Green Master (ROX) (Roche) according to the manufacturer's instructions on a LightCycler 480 PCR machine (Roche). Samples were normalized to β-actin.

[5] = system: RPE cells; experiment: Scratch assay (cell migration) in RPE cells; conditions: KDM4A overexpressing RPE cells vs control, 50 ng/ml EGF, 24 hours
Protocol: Control or stable KDM4A overexpression RPE cells were plated in 6 well tissue culture plates at a density of 2×10^5. Cells were allowed to adhere to plates for 24 hours. After 24 hours in culture, a p200 pipette tip was used to introduce a scratch wound in the centre of the well from the 12 o'clock to 6 o'clock position. Following the induction of the scratch wound, media was removed from each well and 1 ml of DMEM was used to rinse the wells, removing any cellular debris. After this wash, 3 ml of DMEM supplemented with vehicle or human recombinant EGF (Abcam) to a final concentration of 50 ng/ml, was added to each well. Cells were imaged at 0 hrs, 12 hrs and 24 hrs, using the EVOS imaging platform at 4× magnification. Scratch wound measurements were performed using the EVOS software with a minimum of 5 measurements taken at various locations, per scratch wound. All measurements were averaged. Each condition was performed in triplicate for each independent experiment.

[6] = system: KDM4A; experiment: Immunoblot of KDM4A protein levels in RPE cells; conditions: EGF 50 ng/ml, 24 hours
Protocol: Cells were trypsinized and washed two times with PBS before resuspending in RIPA lysis buffer [50 mM Tris pH 7.4, 150 mM NaCl, 0.25% Sodium Deoxycholate, 1% NP40, 1 mM EDTA, 10% Glycerol] freshly supplemented with protease inhibitor and PhosSTOP phosphatase inhibitor cocktails (Roche). Cells were lysed on ice for 15 min and stored at −80° C. until further processing. Lysates were sonicated for 15 min (30 sec ON and 30 sec OFF cycle) at 70% amplitude in QSonica Q700 sonicator (Qsonica) followed by centrifugation at 12,000 rpm for 15 min. Cell lysate was transferred to a fresh tube and protein estimations were performed with Pierce BCA reagent (Thermo Scientific). Equal amounts of proteins were separated by SDS gel electrophoresis and transferred on nitrocellulose membrane (BioTrace NT, Pall Life Sciences) for at least 3 hr at a constant current. The membranes were blocked for at least 1 hr in 5% BSA-PBST (1×PBS with 0.5% Tween-20) or 5% milk-PBST and probed over night with specific antibodies as follows at the following dilutions: anti-GFP (Neuro mAb) (1:100); anti-β-Actin (1:10,000); anti-KDM4A (Neuro mAb) (1:100); anti-Flag (Sigma Aldrich) (1:500); anti-KDMSA (abcam) (1:500); anti-HALO (Promega) (1:1000); anti-Carbonic Anhydrase IX (Abcam) (1:1000). […]

Compound: CCOC(=O)c1ccnc(CNCC(=O)N(CC)CCN(C)C)c1 [KDM5i, reference compound]
- EGFR copy gains after drug removal (washout) ([1]; RPE cells, KDM5i 1 μM, 24 hrs after removal): returned to baseline
- EGFR copy gains ([1]; RPE cells, KDM5i (C70) 1 μM): promoted EGFR copy gains
- percentage of cells (trypan blue exclusion) on co-treatment with Gefitinib [2]: reduced the percentage of cells relative to controls and single agent treatment
- cell proliferation in response to EGF ([3]; RPE cells pre-treated with KDM5i (1 μM) 24 hours, then 50 ng/ml EGF 24 hours, compared to KDM5i alone): increased cell proliferation with supplemented EGF

Compound: EGF: human recombinant EGF (Abcam), the preferred ligand of EGFR
- EGFR DNA copy number, EGF in KDM4A overexpressing cells ([1]; RPE cells stably overexpressing KDM4A, 50 ng/ml EGF, 24 hours): additive increases in EGFR DNA copy number
- EGFR copy number gains ([1]; RPE cells, 50 ng/ml EGF, 24 hours): significant copy number gains of the EGFR locus
- EGFR DNA copy number, EGF combined with hypoxia ([1]; RPE cells, hypoxia 24 hours then 50 ng/ml EGF under hypoxia 24 hours): modest but additive increase in EGFR DNA copy number
- cell proliferation ([3]; KDM4A overexpressing RPE cells vs control, 50 ng/ml EGF, 48 hours): proliferate faster
- EGFR transcripts (qPCR) [4]: increased EGFR transcripts
- cell migration (scratch assay) [5]: migrate faster
- KDM4A protein levels [6]: does not impact KDM4A levels
